Data set [1] in a line: Measurement of fluorescent property of compound (spectrofluorometer). The format is physicochemical. Particulars: 5 μM DMSO solution. The procedure: The excitation wavelength and fluorescence wavelength of the compound were measured by a FL4500 spectrofluorometric measuring machine manufactured by Hitachi High-Technologies Corporation.
In data set [2] the test system is Prostatic cancer cells, PC-3. The experiment in a line: Cancer cell inhibitory (growth suppressive) action against prostatic cancer cells, CellTiter-Glo viable cell count. The format is cell-based. Particulars: PC-3, 10 μg/mL, 24 hours. The procedure:
Prostatic cancer cells, PC-3, were pre-cultured in RPMI1640 medium containing 10% FBS at 37° C. in a 5% CO2 ambient. Thereafter, 4,000 cells were seeded per well of a 96-well plate and further cultured for 24 hours. Subsequently, Compound (11) was added to the medium so as to obtain a final concentration of 10 μg/mL and cultured at 37° C. for 24 hours in a 5% CO2 ambient. The cultured cells were analyzed for viable cell count according to CellTiter-Glo Luminescent Cell Viability Assay (manufactured by Promega KK.). As a reference, the number of cells cultured in a medium containing a 0.1% dimethylsulfoxide solution (hereinafter, simply referred to as DMSO) in place of a medium containing Compound (11), in the aforementioned operation, was used as 100.
Viable cell count was analyzed in the same manner as in Experimental Example 8 except that the compounds shown in Table 3 were used in place of Compound (11) of Experimental Example 8.
Viable cell count was analyzed in the same manner as in Experimental Example 8 except that comparative compounds 1 to 4 were used in place of Compound (11) of Experimental Example 8.
The growth rate in Examples herein is a numerical value of the number of cells obtained after culture relative to the number of cells (regarded as 100) grown in a medium containing 0.1% DMSO.
Evaluation of cancer cell inhibition against the prostatic cancer cells (PC-3) was made as follows. • A: Cancer cell growth rate is less than 20% (cancer cell inhibitory (growth suppressive) effect is extremely high) • B: Cancer cell growth rate is 20% or more and less than 50% (cancer cell inhibitory (growth suppressive) effect is high) • C: Cancer cell growth rate is 50% or more (cancer cell inhibitory (growth suppressive) effect is low)

Data set [3] deals with K562 ALDH (+) fraction (cancer stem cells). As to the kind of experiment: Cancer stem-cell selective inhibitory action against chronic myelocytic leukemia cells, ALDH (+) fraction, CellTiter-Glo. The data set is classed as cell-based. Conditions: Homo sapiens, 24 hours; for activity at 0.05 µg/mL: 0.05 μg/mL; for activity at 0.5 µg/mL: 0.5 μg/mL; for activity at 1 µg/mL: 1 μg/mL. Put shortly: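 ALDEFLUOR-sorted K562 fractions, ALDH (+) with ≥80% stem cells and ALDH (−), cultured 24 h at 37° C. with compound at the stated final concentrations. Viable cells counted by CellTiter-Glo luminescence. Growth is expressed relative to 0.1% DMSO control […], and scored as ALDH (+) and ALDH (+)/ALDH (−) categories.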

For the next data set, the system named is K562 ALDH (+) cells. As to the kind of experiment: Cancer stem-cell selective staining, fluorescent microscopy, ALDH (+) cells. The data set is classed as cell-based, Human. Here is the method:
(§1) The cells cultured for 24 hours in Experimental Example 16 were subjected to nuclear staining with Hoechest33342 (manufactured by Dojindo Laboratories) and a fluorescent image observed under AXIOVERT200M inverted fluorescent microscope (manufactured by Carl Zeiss) was photographed.

A further data set relates to K562 ALDH (−) cells. The experiment in a line: Cancer stem-cell selective staining, fluorescent microscopy, ALDH (−) cells. The data set is classed as cell-based, Human. Conditions: cells cultured for 24 hours in Experimental Example 16 (1 μg/mL). The procedure:
as §1

Where [4] appears, read: read-out: Growth suppression evaluated.
Where [5] appears, read: relative to 0.1% DMSO, read-out: ALDH(+) (growth rate).

Like-named read-outs stand apart in the source and are kept apart here. A value given as a limit tells only on which side of the number the result lay.

Results on 1 molecule are retold here after patent publication US10220024B2, “Method of inhibiting cancer cell, method for detecting cancer cell, and system for detecting cancer cell” (CANON KABUSHIKI KAISHA, priority 2012, dated 2019).

Turning to `COc1ccc(N2c3ccc(/C=C/C4=[N+](C)c5ccccc5C4(C)C)cc3C3CCCC32)cc1` (stereo not shown) [Compound 11], in data set [1], the Excitation wavelength λex amounted to 614 nm and the Fluorescence wavelength λem is 669 nm. Besides, the activity at 10 µg/mL in data set [2] (read-out: Evaluation (cancer cell growth rate)) is under 20%. In addition, in data set [2] (relative to 0.1% DMSO (100), read-out: Cancer cell growth rate (%)), the activity at 10 µg/mL worked out at 6.7%. Also, in data set [3] (setting [4]), the activity at 0.05 µg/mL fell in the range of 50 to 95%, the activity at 0.5 µg/mL was under 50% and the activity at 1 µg/mL was under 50%. In data set [3] (setting [5]), the activity at 0.05 µg/mL worked out at 65%, the activity at 0.5 µg/mL was found to be 32% and the activity at 1 µg/mL was 12%. In addition, the “Selective staining of cancer stem cells” value in the data set on K562 ALDH (+) cells (ALDH (+) versus ALDH (−) K562 cells) is “selectively stained”. Moreover, the “ALDH(+) (ratio of ALDH (+) cells stained)” value with K562 ALDH (+) cells (cells cultured for 24 hours in Experimental Example 16 (1 μg/mL)) turned out to be 76.7%. For the same molecule, in the data set with K562 ALDH (−) cells, the “ALDH(−) (ratio of ALDH (−) cells stained)” value worked out at 48.5%.
